Measured values reported in patent US9181231B2, “Pyruvate kinase activators for use for increasing lifetime of the red blood cells and treating anemia” (AGIOS PHARMACEUTICALS, INC, priority 2011, dated 2015).

Experiments:
Type in all cases: biochemical
Settings in all cases: compound at 1 μM
PKR R532W = PKR R532W (Homo sapiens, UniProt P30613, R532W); test: PKR R532W Single Point Percent Activation Assay
Experimental: PKR R532W Single Point Percent Activation Assay
(§1) A compound described herein was diluted with DMSO and tested at 1 μM concentration. The enzyme was diluted in 1× Buffer: (100 mM KCl, 50 mM Tris 7.5, 5 mM MgCl2, 1 mM DTT, 0.03% BSA). 2 μL of compound solution was first added into wells, and then 180 μL of enzyme solution was added. Assays were assembled except for ADP, and plates were stored for 60 minutes at RT. 20 μL ADP was added to start the assay and assay output was evaluated using OD340 at SpectraMax. The assay was run at room temperature.
PKR R532W (100 ng/well), Tris pH 7.5 (50 mM), KCl (100 mM), MgCl2 (5 mM), ADP (0.36 mM), PEP (0.1 mM), NADH (180 μM), LDH (0.5 units, Sigma 59023), DTT (1 mM) and BSA (0.03%).

PKR R510Q = PKR R510Q (Homo sapiens, UniProt P30613, R510Q); test: PKR R510Q Single Point Percent Activation Assay
PKR R510Q, sequence (P30613 whole entry R510Q): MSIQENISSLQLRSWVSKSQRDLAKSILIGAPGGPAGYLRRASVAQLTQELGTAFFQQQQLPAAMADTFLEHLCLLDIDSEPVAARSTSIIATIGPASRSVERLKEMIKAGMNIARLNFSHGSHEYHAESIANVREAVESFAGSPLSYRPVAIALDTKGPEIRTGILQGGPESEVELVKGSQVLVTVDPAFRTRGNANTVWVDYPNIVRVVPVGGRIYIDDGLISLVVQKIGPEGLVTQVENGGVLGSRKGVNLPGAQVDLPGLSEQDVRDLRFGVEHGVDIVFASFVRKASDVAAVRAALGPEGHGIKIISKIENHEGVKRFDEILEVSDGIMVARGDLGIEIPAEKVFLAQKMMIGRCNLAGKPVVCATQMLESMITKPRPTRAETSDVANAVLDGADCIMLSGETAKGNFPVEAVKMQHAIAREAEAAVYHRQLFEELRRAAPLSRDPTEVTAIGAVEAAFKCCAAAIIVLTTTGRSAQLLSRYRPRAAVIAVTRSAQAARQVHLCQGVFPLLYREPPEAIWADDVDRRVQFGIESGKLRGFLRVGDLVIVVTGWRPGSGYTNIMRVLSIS
Experimental: PKR R510Q Single Point Percent Activation Assay
as §1
PKR R510Q (40 ng/well), Tris pH 7.5 (50 mM), KCl (100 mM), MgCl2 (5 mM), ADP (0.2 mM), PEP (0.11 mM), NADH (180 μM), LDH (0.5 units, Sigma 59023), DTT (1 mM) and BSA (0.03%).

PKR T384W = PKR T384W Single Point Percent Activation Assay
Experimental: PKR T384W Single Point Percent Activation Assay
as §1, with “180 μL enzyme solution” for “180 μL of enzyme solution”
PKR T384W soluble (300 ng/well), Tris pH 7.5 (50 mM), KCl (100 mM), MgCl2 (5 mM), ADP (0.08 mM), PEP (0.23 mM), NADH (180 μM), LDH (0.5 units, Sigma 59023), DTT (1 mM) and BSA (0.03%).

PKR wt = PKR wt (Homo sapiens, UniProt P30613); test: PKR Wide Type Single Point Percent Activation Assay
PKR wt, sequence (P30613 whole entry): as the sequence (P30613 whole entry R510Q) above, with Q510R counted along it
Experimental: PKR Wide Type Single Point Percent Activation Assay
as §1
PKR wt (100 ng/well), Tris pH 7.5 (50 mM), KCl (100 mM), MgCl2 (5 mM), ADP (0.48 mM), PEP (0.15 mM), NADH (180 μM), LDH (0.5 units, Sigma 59023), DTT (1 mM) and BSA (0.03%).

PKR R532W, sequence (P30613 whole entry R532W): as the sequence (P30613 whole entry R510Q) above, with Q510R, R532W counted along it

In the case of `CN1C(=O)COc2ccc(S(=O)(=O)Nc3ccc(F)c(Cl)c3)cc21`, the “% Act. R532W” value (PKR R532W) is reported as “B (a % activation at 1 μM of from 101 to 500)”, the “% Act. R510Q” value (PKR R510Q) is reported as “B (a % activation at 1 μM of from 101 to 500)” and the “% Act. T384W” value (PKR T384W) is reported as “B (a % activation at 1 μM of from 101 to 500)”. For the same molecule, the “% Act. WT” value (PKR wt) was “B (a % activation at 1 μM of from 101 to 500)”.
In the case of `O=C(c1c(F)cccc1F)N1CCN(S(=O)(=O)c2ccc3c(c2)OCCO3)CC1`, the “% Act. R532W” value (PKR R532W) is reported as “B (a % activation at 1 μM of from 101 to 500)”, the “% Act. R510Q” value (PKR R510Q) is reported as “B (a % activation at 1 μM of from 101 to 500)” and the “% Act. T384W” value (PKR T384W) is reported as “B (a % activation at 1 μM of from 101 to 500)”. For the same molecule, the “% Act. WT” value (PKR wt) was “B (a % activation at 1 μM of from 101 to 500)”.
`O=C1Oc2ccc(S(=O)(=O)Nc3ccc(F)c(Cl)c3)cc2CN1Cc1ccccc1` was tested, and the “% Act. R532W” value (PKR R532W) was “B (a % activation at 1 μM of from 101 to 500)”, the “% Act. R510Q” value (PKR R510Q) was “B (a % activation at 1 μM of from 101 to 500)” and the “% Act. T384W” value (PKR T384W) was “B (a % activation at 1 μM of from 101 to 500)”. For the same molecule, the “% Act. WT” value (PKR wt) was “B (a % activation at 1 μM of from 101 to 500)”.
For `O=C1CN(Cc2ccccc2)c2cc(S(=O)(=O)Nc3cccc(Cl)c3)ccc2O1`, the “% Act. R532W” value (PKR R532W) was “A (a % activation at 1 μM of from 1 to 100)”, the “% Act. R510Q” value (PKR R510Q) was “B (a % activation at 1 μM of from 101 to 500)” and the “% Act. T384W” value (PKR T384W) was “A (a % activation at 1 μM of from 1 to 100)”. The “% Act. WT” value (PKR wt) was “A (a % activation at 1 μM of from 1 to 100)”.
For `O=C1Nc2cc(S(=O)(=O)Nc3cccc(F)c3)ccc2NC1Cc1ccccc1` (stereo not shown), the “% Act. R532W” value (PKR R532W) was “B (a % activation at 1 μM of from 101 to 500)”, the “% Act. R510Q” value (PKR R510Q) was “B (a % activation at 1 μM of from 101 to 500)” and the “% Act. T384W” value (PKR T384W) was “B (a % activation at 1 μM of from 101 to 500)”. The “% Act. WT” value (PKR wt) was “B (a % activation at 1 μM of from 101 to 500)”.
In the case of `CN1c2ccc(S(=O)(=O)Nc3cccc(F)c3)cc2NC(=O)C1Cc1ccccc1` (stereo not shown), the “% Act. R532W” value (PKR R532W) is reported as “B (a % activation at 1 μM of from 101 to 500)”, the “% Act. R510Q” value (PKR R510Q) is reported as “B (a % activation at 1 μM of from 101 to 500)” and the “% Act. T384W” value (PKR T384W) is reported as “B (a % activation at 1 μM of from 101 to 500)”. For the same molecule, the “% Act. WT” value (PKR wt) was “B (a % activation at 1 μM of from 101 to 500)”.
For `CN1c2cc(S(=O)(=O)Nc3cccc(F)c3)ccc2OC(=O)[C@@H]1Cc1ccccc1`, the “% Act. R532W” value (PKR R532W) was “A (a % activation at 1 μM of from 1 to 100)”, the “% Act. R510Q” value (PKR R510Q) was “B (a % activation at 1 μM of from 101 to 500)” and the “% Act. T384W” value (PKR T384W) was “B (a % activation at 1 μM of from 101 to 500)”. For the same molecule, the “% Act. WT” value (PKR wt) was “B (a % activation at 1 μM of from 101 to 500)”.
